The record followed here is ChEMBL document CHEMBL1201862, “PubChem BioAssay data set” (2004).

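Values below derive from 48-hour exposures of cells grown in 96-well plates, with endpoints linearly interpolated between the two concentrations bracketing the appropriate inhibition level. GI50: concentration for 50% inhibition of growth.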 Activity calls are given as the source filed them. No stated cut-off is given here; in the data, active = GI50 up to about 1.1 µM and inactive = higher.

What all share (test): NCI tumour cell line growth inhibition, 48 h
The test system of test [1] is SK-OV-3.
In test [2] the test system is MCF7.
For test [3], the system named is HCT-15.
In test [4] the test system is PC-3.
In test [5] the test system is T47D.
The subject of test [6] is Malme-3M.
Test [7] deals with SN12C.
Test [8] relates to OVCAR-5.
Test [9] concerns SNB-75.
Test [10] concerns HCC 2998.
Test [11] relates to A549.
Test [12] relates to IGROV-1.
Test [13] relates to KM12.
In test [14] the test system is LOX IMVI.
Test [15] relates to NCI-H226.
Test [16] deals with OVCAR-8.
The test system of test [17] is SW-620.
The subject of test [18] is Hs-578T.
The subject of test [19] is SNB-19.
Test [20] concerns MDA-MB-435.

With `CCCn1cnc2c(SCC(=O)O)nc(N)nc21`, the GI50 in test [1] is > 100 µM (inactive); in test [2] it was > 100 µM (inactive); in [3], above 100 µM; in test [4], > 100 µM (inactive); in test [5], > 100 µM (inactive); in test [6], > 100 µM (inactive). Besides, the GI50 in test [7], in [8], in test [9], in test [10], in test [11] and in test [12] was > 100 µM (inactive) in each case. The GI50 in test [13], in [14], in test [15], in test [16], in test [17] and in test [18] was > 100 µM (inactive) each time. For the same molecule, the GI50 in test [19] and in test [20] was > 100 µM (inactive) in each case.

On to `CC(C)[Si]1(C(C)C)OCC2OC(n3c(C(=O)c4ccccc4)cc(=O)[nH]c3=O)CC2O[Si](C(C)C)(C(C)C)O1` (stereo not given), for which the GI50 in test [1] is 11.9 µM (inactive); in test [2], 2.94 µM (inactive); in [3], 2.72 µM; in test [4], 2.2 µM (inactive); in test [5] it was 4.36 µM (inactive); in test [6], 3.75 µM (inactive). For the same molecule, the GI50 is 2.39 µM (inactive) in [7]; 3.4 µM (inactive) in [8]; 3.02 µM (inactive) in [9]; 1.65 µM (inactive) in test [10]; 7.28 µM (inactive) in test [11]; 3.28 µM (inactive) in test [12]. The GI50 is 2.31 µM (inactive) in test [13]; 2 µM (inactive) in test [14]; 2.94 µM (inactive) in test [15]; 1.99 µM (inactive) in test [16]; 2.81 µM (inactive) in [17]; 2.26 µM (inactive) in test [18]. The GI50 in [19] is 7.71 µM (inactive); in test [20], 3.1 µM (inactive).

On to `Cc1c(/N=N/c2ccc(Cl)cc2)c(C)n(C2OC(CO)C(O)C(O)C2O)c(=S)c1C#N` (stereo not given), for which the GI50 in test [1] was 37.4 µM (inactive); in test [2], 28.6 µM (inactive); in test [3] it was 23.8 µM; in test [4], 23.4 µM (inactive); in test [5] it was 32.7 µM (inactive); in [6], 22.5 µM (inactive). The GI50 was 15.5 µM (inactive) in test [7]; 30.5 µM (inactive) in test [8]; 28 µM (inactive) in [9]; 23.7 µM (inactive) in test [10]; 22 µM (inactive) in [11]; 15.1 µM (inactive) in test [12]. The GI50 in test [13] was 24.8 µM (inactive); in [14], 17.3 µM (inactive); in test [15], 25.3 µM (inactive); in test [16], 30.1 µM (inactive); in test [17], > 100 µM (inactive); in [18], 10.7 µM (inactive). In addition, the figures for the GI50 in test [19] and in test [20] were > 100 µM (inactive) and 20.2 µM (inactive), respectively.

Turning to `Cc1ccc(/C=N/Nc2nc3ccccc3s2)s1`, the GI50 in [1] was 58.7 µM (inactive); in test [2], 5.53 µM (inactive); in test [3], 19.4 µM; in [4] it was 27.9 µM (inactive); in test [5], 4.05 µM (inactive); in test [6], > 100 µM (inactive). Further, the GI50 in test [7] was 12.6 µM (inactive); in [8] it was > 100 µM (inactive); in test [9], 46.3 µM (inactive); in test [10] it was 55.6 µM (inactive); in test [11], > 100 µM (inactive); in [12], 18.8 µM (inactive). The GI50 in test [13] is 49.1 µM (inactive); in [14], > 100 µM (inactive); in test [15] it was > 100 µM (inactive); in test [16] it was > 100 µM (inactive); in test [17], > 100 µM (inactive); in test [18], 66.1 µM (inactive). In addition, the results for the GI50 in test [19] and in [20] were 51.9 µM (inactive) and > 100 µM (inactive), respectively.

Regarding `CCCNC(=O)Cn1c(C)cc2ccccc21`, the GI50 in test [1] was > 100 µM (inactive); in test [2], > 100 µM (inactive); in [3], above 100 µM; in test [4], > 100 µM (inactive); in test [5], > 100 µM (inactive); in test [6], > 100 µM (inactive). For the same molecule, the GI50 in [7], in test [8], in [9], in test [10], in test [11] and in test [12] was > 100 µM (inactive) each time. Also, the GI50 in test [13], in [14], in [15], in test [16], in [17] and in test [18] was > 100 µM (inactive) each time. Also, the GI50 in test [19] and in test [20] was > 100 µM (inactive) in each case.

On to `C[As](C)SCC(NC(=O)CCC(N)C(=O)O)C(=O)NCC(=O)O.c1ccncc1` (stereo not given), for which the GI50 was 7.31 µM (inactive) in test [1]; 0.126 µM (active) in test [2]; 0.0702 µM in [3]; 0.268 µM (active) in test [4]; 0.0938 µM (active) in test [5]; 0.0389 µM (active) in test [6]. Also, the GI50 in test [7] is 0.506 µM (active); in test [8], 0.436 µM (active); in [9] it was 2.7 µM (inactive); in test [10] it was 0.188 µM (active); in test [11], 0.984 µM (active); in test [12] it was 1.42 µM (inactive). For the same molecule, the GI50 in test [13] is 0.361 µM (active); in [14], 0.18 µM (active); in [15] it was 0.361 µM (active); in test [16] it was 0.231 µM (active); in test [17], 0.0855 µM (active); in test [18], 0.336 µM (active). In addition, the GI50 in test [19] was 3.68 µM (inactive); in [20] it was 0.0843 µM (active).

On to `O=C(O)c1cc(/N=N/c2ccc([N+](=O)[O-])cc2)ccc1O`, for which the GI50 in test [1] was 81.7 µM (inactive); in test [2], 30.8 µM (inactive); in [3], 31.8 µM; in test [4] it was 33.7 µM (inactive); in test [5], 42.6 µM (inactive); in test [6], 42.6 µM (inactive). Besides, the GI50 in test [7] is 30.8 µM (inactive); in [8], 30.3 µM (inactive); in test [9] it was 38.7 µM (inactive); in test [10], 18.7 µM (inactive); in [11], 32.6 µM (inactive); in test [12] it was 40.2 µM (inactive). In addition, the GI50 is 33.2 µM (inactive) in test [13]; 39.7 µM (inactive) in test [14]; 17 µM (inactive) in test [15]; 33.4 µM (inactive) in test [16]; 36 µM (inactive) in test [17]; 37.6 µM (inactive) in [18]. In addition, the GI50 in test [19] is 30.9 µM (inactive); in [20], 34.9 µM (inactive).
